Measured values reported in patent publication US20110275661A1, “TRICYCLIC NITROGEN COMPOUNDS USED AS ANTIBACTERIALS” (Glaxo Group Limited, priority 2008, published 2011).
Where a name gives a salt, the structure may show the parent alone. Read-outs that look alike come from different tables or passages of the source.

Test system: Mycobacterium tuberculosis H37Rv
Assay: Mycobacterium tuberculosis H37Rv Inhibition Assay
Assay type: cell-based
Conditions: ATCC 25618 / H37Rv, read-out: MIC value
[1] = H37Rv strain (ATCC25618), Middlebrook 7H9+ADC medium, resazurin fluorescence

Row | SMILES | MIC [1] [µg/mL] | MIC [µg/mL]
1 | Cc1cc(=O)n2c3c1ccc(=O)n3[C@H](CN1CCC(NCc3cc4c(cn3)OCCC4)CC1)C2 [Example 1, (1R)-1-({4-[(3,4-dihydro-2H-pyrano[2,3-c]pyridin-6-ylmethyl)amino]-1-piperidinyl}methyl)-6-methyl-1,2-dihydro-4H,9H-imidazo[1,2,3-4]-1,8-naphthyridine-4,9-dione hydrochloride] | < 2 | 
2 | Cc1cc(=O)n2c3c1ccc(=O)n3[C@H](CN1CCC(NCc3cc4c(cn3)OCCS4)CC1)C2 [Example 2, (1R)-1-({4-[(2,3-dihydro[1,4]oxathiino[2,3-c]pyridin-7-ylmethyl)amino]-1-piperidinyl}methyl)-6-methyl-1,2-dihydro-4H,9H-imidazo[1,2,3-ij]-1,8-naphthyridine-4,9-dione hydrochloride] |  | < 2
3 | Cc1cc(=O)n2c3c1ccc(=O)n3[C@H](CN1CCC(NCc3cc4c(cn3)OCCO4)CC1)C2 [Example 3, (1R)-1-({4-[(2,3-dihydro[1,4]dioxino[2,3-c]pyridin-7-ylmethyl)amino]-1-piperidinyl}methyl)-6-methyl-1,2-dihydro-4H,9H-imidazo[1,2,3-ij]-1,8-naphthyridine-4,9-dione hydrochloride] |  | > 2.5
4 | Cc1cc(=O)n2c3c1ccc(=O)n3[C@H](CN1CCC(NCc3cc4c(cn3)OCS4)CC1)C2 [Example 4, (1R)-6-methyl-1-({4-[([1,3]oxathiolo[5,4-c]pyridin-6-ylmethyl)amino]-1-piperidinyl}methyl)-1,2-dihydro-4H,9H-imidazo[1,2,3-4]-1,8-naphthyridine-4,9-dione hydrochloride] | < 2 | 
